According to patent US20240058283A1, “THE MODE OF ACTION OF N-MeDCPA ON TRPC CHANNELS” (West Virginia University Board of Governors on Behalf of …, priority 2022, published 2024):

Molecular target: T1, TRPC7 (Homo sapiens, UniProt Q9HCX4)
T1 construct: expressed in transfected cells; host or cells: HEK293 (transient transfection)
T1 sequence (Q9HCX4 1-862): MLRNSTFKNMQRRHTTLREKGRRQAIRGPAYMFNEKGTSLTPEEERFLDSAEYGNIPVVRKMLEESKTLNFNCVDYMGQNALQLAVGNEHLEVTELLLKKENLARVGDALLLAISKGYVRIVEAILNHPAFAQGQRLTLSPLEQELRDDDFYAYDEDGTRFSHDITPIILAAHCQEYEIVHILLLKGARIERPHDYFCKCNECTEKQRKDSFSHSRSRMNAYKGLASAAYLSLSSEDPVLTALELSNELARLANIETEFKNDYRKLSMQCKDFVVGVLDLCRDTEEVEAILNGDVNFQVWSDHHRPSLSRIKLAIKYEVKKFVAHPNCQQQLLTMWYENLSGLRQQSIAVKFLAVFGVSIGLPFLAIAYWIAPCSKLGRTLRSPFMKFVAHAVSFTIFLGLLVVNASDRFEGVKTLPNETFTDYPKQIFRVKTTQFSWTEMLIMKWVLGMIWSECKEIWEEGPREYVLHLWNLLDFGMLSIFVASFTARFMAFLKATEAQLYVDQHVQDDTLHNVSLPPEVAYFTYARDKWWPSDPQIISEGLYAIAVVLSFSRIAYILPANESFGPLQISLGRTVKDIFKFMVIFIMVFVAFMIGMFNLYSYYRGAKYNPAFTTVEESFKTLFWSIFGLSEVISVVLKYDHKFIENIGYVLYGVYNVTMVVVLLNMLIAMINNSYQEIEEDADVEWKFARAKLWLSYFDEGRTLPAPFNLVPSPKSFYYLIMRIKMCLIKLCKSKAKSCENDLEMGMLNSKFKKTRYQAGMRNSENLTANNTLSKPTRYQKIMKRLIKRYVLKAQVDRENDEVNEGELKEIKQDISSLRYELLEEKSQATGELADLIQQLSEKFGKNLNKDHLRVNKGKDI
Experiment: Carbachol (Cch)-induced Sr2+ entry in Fura2-loaded HEK293 cells overexpressing TRPC7
Type: cell-based
Conditions: versus DAG-mediated activation, FIG. 2D, E
Excerpt: Inhibition of GPCR-mediated TRPC activation. Since TRPC4 and TRPC5 are not activated by DAG, we utilized carbachol (Cch)-induced Sr^2+ entry to determine their sensitivity to ELP-004. Since Cch drives ER Ca^2+ release, Cch-induced Ca^2+ entry includes both store-operated and TRPC-mediated components. To specifically measure ion entry through TRPC channels, we took advantage of the lack of ion selectivity of TRPC channel and substituted Sr^2+ for Ca^2+ as previously described^7. As expected, Cch stimulated rapid ER Ca^2+ release immediately upon addition in both TRPC4- and TRPC5-expressing cells (FIG. 2A,B). The subsequent addition of Sr^2+ (3 mM) lead to a significant increase in Fura ratio with a substantially larger response in TRPC5-expressing than TRPC4-expressing cells. […] Therefore, we assessed inhibition of TRPC7 by ELP-004 using the Cch Sr^2+ assay (FIG. 2D, E). […]
TRPC activity assay—Cells grown on glass coverslips were incubated in a cation-safe buffer (107 mM NaCl, 7.2 mM KCl, 1.2 mM MgCl2, 11.5 mM Glucose, 20 mM HEPES-NaOH, 1 mM CaCl2), pH 7.2) and loaded with Fura2-acetoxymethylester (Fura2-AM; 2 μM) for 30 min at 24° C. as previously described^10,11. […] Ca^2+/Sr^2+ measurements were taken using a Leica DMI 6000B fluorescence microscope controlled by Slidebook software (Intelligent Imaging Innovations, Denver, CO). […]

Q: Which “increase in sensitivity to ELP-004 in the Cch Sr2+ assay” value does the source give for `CCC(=O)N(C)c1ccc(Cl)c(Cl)c1` [ELP-004, N-(3,4-dichlorophenyl)-N-methylpropanamide] here?
A: 3 order of magnitude
